Measurements published in paper PMC10261210 (Cancer Chemotherapy and Pharmacology, 2023).
Entries after “also recorded” stand apart in the source; their conditions may differ. Where two headings read alike, the source gives them in different places.

How the values were obtained:
[1] = plasma pharmacokinetics (LC–MS/MS, noncompartmental analysis); type: in vivo, human; conditions: for Tmax / AUC / Cmax / half-life: human, plasma; for Cmax: read-out: Cmax, geometric mean (%CV); for half-life: read-out: t1/2z, mean (range) (converted)
Description: In addition, for patients on Q2D schedules, predose or trough samples were collected on days 9 and 15 (Q2D dosing) or days 8 and 15 (QW dosing) to evaluate time to steady state. […] Plasma concentration–time analysis was performed using noncompartmental analysis. The plasma PK parameters were estimated using a validated version of Phoenix WinNonlin software (Version 6.3 or above, Pharsight Corporation, Raleigh, NC). Terminal half-life was calculated based on the equation: t1/2 = ln2/kel (kel = elimination rate constant determined by linear regression analysis of selected time points in the apparent terminal phase of the log plasma concentration versus time curve).

[2] = test system: patients with relapsed or refractory advanced solid tumors; test: 3 + 3 dose escalation: DLT, MTD, RP2D; type: in vivo; conditions: for MTD: 28-day cycles; for recommended phase 2 dose (RP2D): human, in vivo
From the text: Prior to the initiation of QW dose escalation, the initial cycle length of 22 days was changed to 28 days by protocol amendment to improve clinical feasibility and better facilitate future combination studies. Patients enrolled prior to this protocol amendment in an ongoing Q2D dose escalation cohort continued on the 22-day cycle schedule until the cohort was full and all patients had been evaluated for dose-limiting toxicity (DLT). For both Q2D and QW regimens, dose escalation progressed according to the incidence of DLT in the first treatment cycle (either 22 days or 28 days). […] The MTD was defined as the highest dose level that generated DLT in 0/3 or 1/6 patients. On a case-by-case basis, the sponsor in collaboration with the principal investigators determined if intrapatient dose escalation was appropriate. Patients who had any dose reductions were not permitted to dose escalate.
The starting dose for the Q2D dose escalation phase was 20 mg, which was equivalent to one-tenth of the highest non-severely toxic dose (HNSTD) established in monkey toxicology studies. Dose escalation included planned dose levels of 40 mg, 80 mg, 135 mg, 200 mg, and 280 mg. […] In addition, a seventh Q2D cohort was to enroll sufficient patients (approximately 16) with any advanced solid tumor (excluding lymphoma) to ensure that 12 patients completed protocol-specified dosing and PK assessments scheduled during cycle 1.
The study was initially designed to investigate a Q2D schedule. Subsequently, a protocol amendment introduced planned QW dose escalation cohorts. The alteration in the dosing regimen from Q2D to QW was expected to reduce drug accumulation and increase Cmax while maintaining similar steady-state AUC. In addition, it was hypothesized that the increased Cmax might lead to a higher degree of pathway inhibition for a window of time within the dosing interval, without compromising overall dose density. Planned QW doses to be administered on days 1, 8, 15, and 22 of a 28-day cycle were a starting dose of 400 mg, followed by dose level increases of 200 mg (i.e., doses of 600 mg, 800 mg, and 1000 mg) in each subsequent cohort until the MTD/RP2D was reached.

[3] = test system: recurrent/progressive low-grade gliomas harboring MAPK pathway alterations; conditions: cited from earlier work
[4] = set-up: method as in PMID 28082416; conditions: healthy brain and intracranial tumors (pediatric low-grade astrocytoma cells, KIAA1549-BRAF fusion); cited from earlier work
[5] = test system: BRAF V600 mutant melanoma xenografts; set-up: method as in doi:10.1016/S1359-6349(10)71810-3; conditions: mice; tumors remaining sensitive to a second dosing cycle; cited from earlier work
pERK = pERK expression in paired tumor biopsies (H-score, image analysis); type: in vivo, human; conditions: for median percentage decrease in pERK staining, day 21 vs baseline: Q2D expansion; for median percentage decrease in pERK expression, day 21 vs baseline: QW melanoma expansion cohort
Description: Based on tissue availability, pharmacodynamic assays included assessment of pERK expression levels in paired biopsy samples (baseline and day 21) from patients in the melanoma dose expansion cohorts. The level of staining was assessed both by a pathologist (semi-quantitative measurements according to H-score assessment) and by quantitated image analysis (Aperio, Leica Biosystems Nussloch, Germany).

[6] = test system: relapsed or refractory advanced solid tumors, melanoma; set-up: method as in ref 25 = [25]; 25. Medina T Barry E Govinda Raju S Blackman S Gonzalez R Prolonged complete response to the pan-RAF inhibitor DAY101 in a patient with an NRAS -mutated acral lentiginous melanoma Pigment Cell Melanom; conditions: one patient, NRAS-mutated melanoma, cited from earlier work
BRAF V600E mutant = test system: BRAF V600E mutant; set-up: method as in doi:10.1016/S1359-6349(10)71810-3; conditions: preclinical studies; cited from earlier work
[7] = po, 400 mg, 400 mg QW oral, cycle 1 day 22, plasma, n 3
[8] = po, 600 mg, 600 mg QW oral, cycle 1 day 22, plasma, n 20
[9] = po, 800 mg, 800 mg QW oral, cycle 1 day 22, plasma, n 3
[10] = dose-escalation part, QW monotherapy, 8 patients with tumor RAF gene fusions

C[C@@H](NC(=O)c1ncnc(N)c1Cl)c1ncc(C(=O)Nc2cc(C(F)(F)F)c(Cl)cn2)s1 [tovorafenib]
dose dependence of steady-state AUC48 ([1]; 20 mg to 280 mg Q2D): approximately dose-proportional | dose dependence of steady-state exposure (AUC168) ([1]; 400 mg to 800 mg QW): approximately dose-proportional | power model coefficient, dose versus steady-state AUC168 ([1]; 400 mg to 800 mg QW, cycle 1 day 22, 95% CI 0.55–2.04): 1.30 | geometric mean Rauc ([1]; Q2D dosing regimen at 200 mg): ~ 2.55 | Tmax ([1]; oral, post-dose, Q2D and QW, read-out: overall median Tmax): 2 to 4 h | AUC ([1]; po, 20 mg, 20 mg Q2D oral, cycle 1 day 21, plasma, n 3, read-out: AUC48, geometric mean (%CV)): 10.4 µg·h/mL | Cmax ([1]; po, 20 mg, 20 mg Q2D oral, cycle 1 day 21, plasma, n 3): 302 ng/mL | Tmax ([1]; po, 20 mg, 20 mg Q2D oral, cycle 1 day 21, plasma, n 3, read-out: tmax, median (min, max)): 2 h | AUC ([1]; po, 40 mg, 40 mg Q2D oral, cycle 1 day 21, plasma, n 2, read-out: AUC48, geometric mean (%CV)): 20.9 µg·h/mL | Cmax ([1]; po, 40 mg, 40 mg Q2D oral, cycle 1 day 21, plasma, n 2): 760 ng/mL | Tmax ([1]; po, 40 mg, 40 mg Q2D oral, cycle 1 day 21, plasma, n 2, read-out: tmax, median (min, max)): 3 h | AUC ([1]; po, 80 mg, 80 mg Q2D oral, cycle 1 day 21, plasma, n 3, read-out: AUC48, geometric mean (%CV)): 42.7 µg·h/mL | Cmax ([1]; po, 80 mg, 80 mg Q2D oral, cycle 1 day 21, plasma, n 3): 2040 ng/mL | Tmax ([1]; po, 80 mg, 80 mg Q2D oral, cycle 1 day 21, plasma, n 3, read-out: tmax, median (min, max)): 4 h | AUC ([1]; po, 135 mg, 135 mg Q2D oral, cycle 1 day 21, plasma, n 3, read-out: AUC48, geometric mean (%CV)): 96.8 µg·h/mL | Cmax ([1]; po, 135 mg, 135 mg Q2D oral, cycle 1 day 21, plasma, n 3): 3320 ng/mL | Tmax ([1]; po, 135 mg, 135 mg Q2D oral, cycle 1 day 21, plasma, n 3, read-out: tmax, median (min, max)): 2 h | AUC ([1]; po, 200 mg, 200 mg (n=7) Q2D oral, cycle 1 day 21, plasma, n 6, read-out: AUC48, geometric mean (%CV)): 118 µg·h/mL | Cmax ([1]; po, 200 mg, 200 mg (n=7) Q2D oral, cycle 1 day 21, plasma, n 6): 3810 ng/mL | Tmax ([1]; po, 200 mg, 200 mg (n=7) Q2D oral, cycle 1 day 21, plasma, n 6, read-out: tmax, median (min, max)): 3 h | AUC ([1]; po, 200 mg, 200 mg (n=23; PK expansion cohort and 28-day cycle cohort) Q2D oral, cycle 1 day 21, plasma, n 14, read-out: AUC48, geometric mean (%CV)): 127 µg·h/mL | Cmax ([1]; po, 200 mg, 200 mg (n=23; PK expansion cohort and 28-day cycle cohort) Q2D oral, cycle 1 day 21, plasma, n 14): 3680 ng/mL | Tmax ([1]; po, 200 mg, 200 mg (n=23; PK expansion cohort and 28-day cycle cohort) Q2D oral, cycle 1 day 21, plasma, n 14, read-out: tmax, median (min, max)): 2 h | AUC ([1]; po, 280 mg, 280 mg Q2D oral, cycle 1 day 21, plasma, n 4, read-out: AUC48, geometric mean (%CV)): 155 µg·h/mL | Cmax ([1]; po, 280 mg, 280 mg Q2D oral, cycle 1 day 21, plasma, n 4): 4060 ng/mL | Tmax ([1]; po, 280 mg, 280 mg Q2D oral, cycle 1 day 21, plasma, n 4, read-out: tmax, median (min, max)): 3 h | AUC ([1]; po, 400 mg, 400 mg QW oral, cycle 1 day 22, plasma, n 3, read-out: AUC168, geometric mean (%CV)): 193 µg·h/mL | Cmax [1, 7]: 3140 ng/mL | Tmax ([1]; po, 400 mg, 400 mg QW oral, cycle 1 day 22, plasma, n 3, read-out: Tmax, median (min, max)): 3 h | half-life [1, 7]: 52 h | AUC ([1]; po, 600 mg, 600 mg QW oral, cycle 1 day 22, plasma, n 20, read-out: AUC168, geometric mean (%CV)): 330 µg·h/mL | Cmax [1, 8]: 5650 ng/mL | Tmax ([1]; po, 600 mg, 600 mg QW oral, cycle 1 day 22, plasma, n 20, read-out: Tmax, median (min, max)): 3 h | half-life [1, 8]: ~70 h | AUC ([1]; po, 800 mg, 800 mg QW oral, cycle 1 day 22, plasma, n 3, read-out: AUC168, geometric mean (%CV)): 473 µg·h/mL | Cmax [1, 9]: 6460 ng/mL | Tmax ([1]; po, 800 mg, 800 mg QW oral, cycle 1 day 22, plasma, n 3, read-out: Tmax, median (min, max)): 4 h | half-life [1, 9]: 68.1 h | accumulation in systemic circulation (day 22 AUC168 over day 1 AUC168) ([1]; repeated QW dosing, 400–800 mg): minimal accumulation; also recorded: Minimal to no apparent accumulation | MTD ([2]; Q2D): 200 mg | MTD ([2]; QW): 600 mg | recommended phase 2 dose (RP2D) [2]: 200 mg | recommended phase 2 dose (RP2D) ([2]; 28 days): 600 mg | complete responses [3, 10]: 2 patients | partial responses [3, 10]: 3 patients | prolonged stable disease [3, 10]: two | patients with clinically meaningful activity ([3]; phase 1b part, 24 of 35 patients with MAPK pathway-altered cancers): 69% | complete responses ([3]; phase 1b part, 35 patients): 2 | partial responses ([3]; phase 1b part, 35 patients): 7 | stable diseases ([3]; phase 1b part, 35 patients): 15 | blood–brain barrier penetration [4]: good blood–brain barrier penetration | effect on large, established xenograft tumors [5]: caused tumor regression | median percentage decrease in pERK staining, day 21 vs baseline (pERK; H-score by a pathologist, BRAF mutation-positive previously treated cohort): ≥ 70% | median percentage decrease in pERK staining, day 21 vs baseline (pERK; H-score by a pathologist, BRAF mutation-positive treatment-naïve cohort): ≥ 70% | median percentage decrease in pERK staining, day 21 vs baseline (pERK; H-score by a pathologist, NRAS mutation-positive treatment-naïve cohort): ≥ 70% | median percentage decrease in pERK expression, day 21 vs baseline (pERK; H-score by a pathologist): 12% | median percentage decrease in pERK staining, day 21 vs baseline (pERK; quantitated image analysis, BRAF mutation-positive previously treated cohort): ≥ 70% | median percentage decrease in pERK staining, day 21 vs baseline (pERK; quantitated image analysis, NRAS mutation-positive treatment-naïve cohort): ≥ 70% | median percentage decrease in pERK expression, day 21 vs baseline (pERK; quantitated image analysis): 8% | treatment time until complete response was reported ([6]; single patient IND after the study): 7 months | duration for which complete response has been sustained ([6]; single patient IND, continued treatment): 8 years | IC50 (BRAF V600E mutant): 7.1 nM
